Assay results: publication PMC3395220 (Journal of Medicinal Chemistry, 2012)
Read-outs that look alike come from different tables or passages of the source.

Columns and labels:
60 cancer cell lines = experiment: cells; format: cell-based, human; details: Homo sapiens
CCRF-CEM = format: cell-based, human; details: 10^Δ2-x, relative to compound 2
HL-60(TB) = format: cell-based, human; details: 10^Δ2-x, relative to compound 2
K-562 = format: cell-based, human; details: 10^Δ2-x, relative to compound 2
MOLT-4 = format: cell-based, human; details: 10^Δ2-x, relative to compound 2
RPMI-8226 = format: cell-based, human; details: 10^Δ2-x, relative to compound 2
SR = format: cell-based, human; details: 10^Δ2-x, relative to compound 2
A549/ATCCC = format: cell-based, human; details: 10^Δ2-x, relative to compound 2
EKVX = format: cell-based, human; details: 10^Δ2-x, relative to compound 2
HOP-62 = format: cell-based, human; details: 10^Δ2-x, relative to compound 2
HOP-92 = format: cell-based, human; details: 10^Δ2-x, relative to compound 2
NCI-H226 = format: cell-based, human; details: 10^Δ2-x, relative to compound 2
NCI-H23 = format: cell-based, human; details: 10^Δ2-x, relative to compound 2
NCI-H460 = format: cell-based, human; details: 10^Δ2-x, relative to compound 2
NCI-H522 = format: cell-based, human; details: 10^Δ2-x, relative to compound 2
COLO 205 = format: cell-based, human; details: 10^Δ2-x, relative to compound 2
HCC-2998 = format: cell-based, human; details: 10^Δ2-x, relative to compound 2
HCT-116 = format: cell-based, human; details: 10^Δ2-x, relative to compound 2
HCT-15 = format: cell-based, human; details: 10^Δ2-x, relative to compound 2
HT29 = format: cell-based, human; details: 10^Δ2-x, relative to compound 2
KM12 = format: cell-based, human; details: 10^Δ2-x, relative to compound 2
SW-620 = format: cell-based, human; details: 10^Δ2-x, relative to compound 2
SF-268 = format: cell-based, human; details: 10^Δ2-x, relative to compound 2
SF-295 = format: cell-based, human; details: 10^Δ2-x, relative to compound 2
SF-539 = format: cell-based, human; details: 10^Δ2-x, relative to compound 2
SNB-19 = format: cell-based, human; details: 10^Δ2-x, relative to compound 2
SNB-75 = format: cell-based, human; details: 10^Δ2-x, relative to compound 2
U251 = format: cell-based, human; details: 10^Δ2-x, relative to compound 2
LOX IMVI = format: cell-based, human; details: 10^Δ2-x, relative to compound 2
M14 = format: cell-based, human; details: 10^Δ2-x, relative to compound 2
MDA-MB-435 = format: cell-based, human; details: 10^Δ2-x, relative to compound 2
SK-MEL2 = format: cell-based, human; details: 10^Δ2-x, relative to compound 2
SK-MEL28 = format: cell-based, human; details: 10^Δ2-x, relative to compound 2
SK-MEL-5 = format: cell-based, human; details: 10^Δ2-x, relative to compound 2
UACC-257 = format: cell-based, human; details: 10^Δ2-x, relative to compound 2
UACC-62 = format: cell-based, human; details: 10^Δ2-x, relative to compound 2
IGROV1 = format: cell-based, human; details: 10^Δ2-x, relative to compound 2
OVCAR-3 = format: cell-based, human; details: 10^Δ2-x, relative to compound 2
OVCAR-4 = format: cell-based, human; details: 10^Δ2-x, relative to compound 2
OVCAR-5 = format: cell-based, human; details: 10^Δ2-x, relative to compound 2
OVCAR-8 = format: cell-based, human; details: 10^Δ2-x, relative to compound 2
NCI/ADR-RES = experiment: cells; format: cell-based, human; details: 10^Δ2-x, relative to compound 2
786-0 = format: cell-based, human; details: 10^Δ2-x, relative to compound 2
A498 = format: cell-based, human; details: 10^Δ2-x, relative to compound 2
ACHN = format: cell-based, human; details: 10^Δ2-x, relative to compound 2
CAKI-1 = format: cell-based, human; details: 10^Δ2-x, relative to compound 2
RXF 393 = format: cell-based, human; details: 10^Δ2-x, relative to compound 2
SN12C = format: cell-based, human; details: 10^Δ2-x, relative to compound 2
TK-10 = format: cell-based, human; details: 10^Δ2-x, relative to compound 2
UO-31 = format: cell-based, human; details: 10^Δ2-x, relative to compound 2
PC-3 = format: cell-based, human; details: 10^Δ2-x, relative to compound 2
DU-145 = format: cell-based, human; details: 10^Δ2-x, relative to compound 2
MCF7 = format: cell-based, human; details: 10^Δ2-x, relative to compound 2
MDA-MB-231/ATCC = format: cell-based, human; details: 10^Δ2-x, relative to compound 2
HS578T = format: cell-based, human; details: 10^Δ2-x, relative to compound 2
BT-549 = format: cell-based, human; details: 10^Δ2-x, relative to compound 2
T-47D = format: cell-based, human; details: 10^Δ2-x, relative to compound 2
MDA-MB-468 = format: cell-based, human; details: 10^Δ2-x, relative to compound 2
[1] = test system: COLO-205 (colon), A549 (non-small cell lung) and BXCP3 (pancreas); experiment: cells; format: cell-based; details: 72 h, read-out: average GI50 (50% of growth inhibition)
[2] = test system: panel of 12 tumor cell lines implanted in mice; experiment: NCI hollow fiber assay; format: in vivo; details: 12 tumor cell lines, daily ip for four days

CO[C@H](C(=O)[C@@H](O)[C@@H](C)O)[C@@H]1Cc2cc3cc(O[C@H]4C[C@@H](O[C@H]5C[C@@H](O)[C@H](O)[C@@H](C)O5)[C@H](O)[C@@H](C)O4)c(C)c(O)c3c(O)c2C(=O)[C@H]1O[C@H]1C[C@@H](O[C@H]2C[C@@H](O[C@H]3C[C@H](O)[C@H](O)[C@@H](C)O3)[C@H](O)[C@@H](C)O2)[C@H](O)[C@@H](C)O1 [Compound 2, demycarosyl-3D-β-D-digitoxosyl-mithramycin, reference compound]
GI50 (60 cancer cell lines; read-out: Mean GI50): 51 nM

CO[C@H](C(=O)C(C)=O)[C@@H]1Cc2cc3cc(O[C@H]4C[C@@H](O[C@H]5C[C@@H](O)[C@H](O)[C@@H](C)O5)[C@H](O)[C@@H](C)O4)c(C)c(O)c3c(O)c2C(=O)[C@H]1O[C@H]1C[C@@H](O[C@H]2C[C@@H](O[C@H]3C[C@H](O)[C@H](O)[C@@H](C)O3)[C@H](O)[C@@H](C)O2)[C@H](O)[C@@H](C)O1 [Compound 11, demycarosyl-3D-β-D-digitoxosyl-mithramycin SDK]
activity improvement factor (CCRF-CEM): 1.16
activity improvement factor (HL-60(TB)): 3.09
activity improvement factor (K-562): 1.26
activity improvement factor (MOLT-4): 1.76
activity improvement factor (RPMI-8226): 0.75
activity improvement factor (SR): 1.22
activity improvement factor (A549/ATCCC): 1.68
activity improvement factor (EKVX): 1.48
activity improvement factor (HOP-62): 3.39
activity improvement factor (HOP-92): 1.50
activity improvement factor (NCI-H226): 1.32
activity improvement factor (NCI-H23): 2.79
activity improvement factor (NCI-H460): 1.19
activity improvement factor (NCI-H522): 0.70
activity improvement factor (COLO 205): 1.60
activity improvement factor (HCC-2998): 4.79
activity improvement factor (HCT-116): 1.30
activity improvement factor (HCT-15): 5.82
activity improvement factor (HT29): 3.13
activity improvement factor (KM12): 2.32
activity improvement factor (SW-620): 1.22
activity improvement factor (SF-268): 1.66
activity improvement factor (SF-295): 2.32
activity improvement factor (SF-539): 1.58
activity improvement factor (SNB-19): 2.57
activity improvement factor (SNB-75): 2.75
activity improvement factor (U251): 1.35
activity improvement factor (LOX IMVI): 1.51
activity improvement factor (M14): 2.75
activity improvement factor (MDA-MB-435): 1.70
activity improvement factor (SK-MEL2): 2.24
activity improvement factor (SK-MEL28): 1.30
activity improvement factor (SK-MEL-5): 1.24
activity improvement factor (UACC-257): 1.17
activity improvement factor (UACC-62): 0.91
activity improvement factor (IGROV1): 3.24
activity improvement factor (OVCAR-3): 3.43
activity improvement factor (OVCAR-4): 2.88
activity improvement factor (OVCAR-5): 2.57
activity improvement factor (OVCAR-8): 2.11
activity improvement factor (NCI/ADR-RES): 4.68
activity improvement factor (786-0): 2.43
activity improvement factor (A498): 0.68
activity improvement factor (ACHN): 2.09
activity improvement factor (CAKI-1): 1.82
activity improvement factor (RXF 393): 1.91
activity improvement factor (SN12C): 1.45
activity improvement factor (TK-10): 1.50
activity improvement factor (UO-31): 1.30
activity improvement factor (PC-3): 4.37
activity improvement factor (DU-145): 3.63
activity improvement factor (MCF7): 0.65
activity improvement factor (MDA-MB-231/ATCC): 2.00
activity improvement factor (HS578T): 1.76
activity improvement factor (BT-549): 1.26
activity improvement factor (T-47D): 1.32
activity improvement factor (MDA-MB-468): 2.14
GI50 (60 cancer cell lines; read-out: Mean GI50): 28 nM
GI50 (60 cancer cell lines; read-out: Mean log(GI50) (converted)): 28.2 nM
GI50 [1]: 300 to 1300 nM
hollow fiber assay total score [2]: 48/96
